The conditions of series [1]: human.
For series [2] the following is noted: human, serum.
Series [3] in a line: Comments (NB not yet translated). [column 'COMMENTAIRES' in source]. The settings on record: human.
A short description of series [4]: Highest frequency of moderate liver toxicity observed during clinical trials, expressed as a percentage. [column '% BIOL' in source]. The settings on record: human.
Series [5] can be described thus: Times to onset, minimal and maximal, observed in the indexed observations. [column 'DELAI' in source]. The settings on record: human.
Series [6] can be described thus: Proposed mechanism(s) of liver damage. [column 'MEC' in source]. As to conditions: human.
For series [7] the following is noted: human, serum, 4383 h.
The conditions of series [8]: human. The source holds these as a separate data set.
The conditions of series [9]: human. This is another data set of the same source.
Series [10] is described as follows: Highest frequency of acute liver toxicity observed during clinical trials, expressed as a percentage. [column '% AIGUE' in source]. As to conditions: human.
The conditions of series [11]: human. This is another data set of the same source.
The conditions of series [12]: human. The source holds these as a separate data set.
The conditions of series [13]: human. The source holds these as a separate data set.
The conditions of series [14]: human, serum. This is another data set of the same source.
For series [15] the following is noted: human. This is another data set of the same source.
For series [16] the following is noted: human. This is another data set of the same source.
The conditions of series [17]: human. The source holds these as a separate data set.
The conditions of series [18]: human. The source holds these as a separate data set.

These results are taken from ChEMBL document CHEMBL3137667, “[Drug-induced liver injury; fourteenth updated edition of the bibliographic database of liver injuries and related drugs]” (Gastroenterol Clin Biol, 2004).
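Wherever Hepatotoxicity (association with vascular disease) is given: count of indexed literature references reporting vascular liver injury in humans, e.g. peliosis hepatitis, hepatic veno-occlusive disease or Budd-Chiari syndrome.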
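Wherever Hepatotoxicity (benign tumour) is given: value is a count of indexed literature references citing a benign tumour confirmed by histopathology.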
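Wherever Hepatotoxicity (choleostasis) is given: human cholestatic liver injury, shown by histopathology or by peak ALT or AST elevation over alkaline phosphatase ratio below 2, value counts indexed literature reports.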
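Wherever Hepatotoxicity (chronic liver disease) is given: chronic liver injury confirmed by histopathology or persistently raised serum aminotransferase activity beyond 6 months, value given as the count of indexed literature references.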
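Wherever Hepatotoxicity (cirrhosis) is given: value is a count of indexed literature references reporting cirrhosis confirmed by histopathology.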
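Wherever Hepatotoxicity (cytolytic) is given: human cytolytic liver injury, shown by histopathology or by a ratio above 5 of peak ALT or AST elevation to alkaline phosphatase elevation, value counts indexed references.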
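Wherever Hepatotoxicity (granulomatous hepatitis) is given: value is a count of indexed literature references reporting granulomatous liver disease confirmed by histopathology.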
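Wherever Hepatotoxicity (malignant tumour) is given: malignant tumour confirmed by histopathology, value gives the count of indexed literature references reporting it.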
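Wherever Hepatotoxicity (severe hepatitis) is given: human clinical data: severe hepatitis, meaning potentially life-threatening liver failure or clinically observed cases, the value counts how many indexed literature references report it.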
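Wherever Hepatotoxicity (steatosis) is given: steatosis confirmed by histopathology, value is the count of indexed references.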

Turning to `FC(F)OC(F)C(F)(F)F` (configuration not stated), the “Hepatotoxicity (severe hepatitis)” value in series [1] worked out at 3. In addition, the “Hepatotoxicity (moderate)” value in series [2] turned out to be 2; in series [4] it was 11.1%. Moreover, in series [3], the “Hepatotoxicity (comment)” value was “AC_ANTI-TFA”. For the same compound, the “Hepatotoxicity (time to onset)” value in [5] is reported as 1 day - 12 days. Also, in series [6], the “Hepatotoxicity (mechanism)” value is “Reactive metabolite, Allergic”. In addition, in series [7], the “Hepatotoxicity (chronic liver disease)” value amounted to 0. Further, the “Hepatotoxicity (association with vascular disease)” value in series [8] turned out to be 0. The “Hepatotoxicity (malignant tumour)” value in series [9] worked out at 0. In addition, the “Hepatotoxicity (acute)” value in series [10] is 0%; in series [14] it was 4. Moreover, the “Hepatotoxicity (animal toxicity known)” value in [11] is on record as “yes”. Besides, the “Hepatotoxicity (benign tumour)” value in series [12] amounted to 0. Moreover, the “Hepatotoxicity (choleostasis)” value in [13] is given as 0. In addition, in series [15], the “Hepatotoxicity (cytolytic)” value was 4. Moreover, the “Hepatotoxicity (granulomatous hepatitis)” value in series [16] was determined as 0. Moreover, the “Hepatotoxicity (cirrhosis)” value in series [17] amounted to 0. The “Hepatotoxicity (steatosis)” value in series [18] is listed as 0.

Turning to `O=c1[nH]cc(F)c(=O)[nH]1` [FLUOROURACIL], in [1], the “Hepatotoxicity (severe hepatitis)” value turned out to be 2. The “Hepatotoxicity (moderate)” value is reported as 15 in series [2] and 61.2% in [4]. Also, the “Hepatotoxicity (comment)” value in [3] is “CHOLANGITE/IAH I/LEVAMISOLE”. In addition, the “Hepatotoxicity (time to onset)” value in series [5] worked out at 1 month - 1 year. The “Hepatotoxicity (mechanism)” value in series [6] is recorded as “Dose-dependant, Toxic Metabolite”. In series [7], the “Hepatotoxicity (chronic liver disease)” value is 0. Also, the “Hepatotoxicity (association with vascular disease)” value in series [8] is given as 1. The “Hepatotoxicity (malignant tumour)” value in [9] came out at 0. For the same compound, the “Hepatotoxicity (acute)” value in series [10] was 25%; in [14], 4. Besides, the “Hepatotoxicity (animal toxicity known)” value in series [11] was “yes”. The “Hepatotoxicity (benign tumour)” value in series [12] is given as 0. Moreover, the “Hepatotoxicity (choleostasis)” value in series [13] came out at 1. The “Hepatotoxicity (cytolytic)” value in series [15] is 2. Moreover, in [16], the “Hepatotoxicity (granulomatous hepatitis)” value is recorded as 0. In addition, the “Hepatotoxicity (cirrhosis)” value in series [17] amounted to 1. Further, the “Hepatotoxicity (steatosis)” value in [18] worked out at 4.

`CN(C)CCCN1c2ccccc2CCc2ccc(Cl)cc21` [CLOMIPRAMINE]: the “Hepatotoxicity (severe hepatitis)” value in [1] is recorded as 0. For the same compound, the “Hepatotoxicity (moderate)” value came out at 11 in series [2] and 10.7% in series [4]. In addition, the “Hepatotoxicity (comment)” value in [3] is listed as “RC/AMINEPTINE”. In addition, the “Hepatotoxicity (time to onset)” value in [5] is 1 week - 4 years. Besides, in series [6], the “Hepatotoxicity (mechanism)” value is reported as “Allergic”. In series [7], the “Hepatotoxicity (chronic liver disease)” value is on record as 0. Further, the “Hepatotoxicity (association with vascular disease)” value in series [8] came to 0. For the same compound, the “Hepatotoxicity (malignant tumour)” value in series [9] came to 0. The “Hepatotoxicity (acute)” value in series [10] turned out to be 0%; in [14] it was 6. Further, the “Hepatotoxicity (animal toxicity known)” value in series [11] is on record as “yes”. The “Hepatotoxicity (benign tumour)” value in series [12] is 0. Besides, the “Hepatotoxicity (choleostasis)” value in series [13] was determined as 2. Further, the “Hepatotoxicity (cytolytic)” value in series [15] was 3. In series [16], the “Hepatotoxicity (granulomatous hepatitis)” value was found to be 0. In addition, the “Hepatotoxicity (cirrhosis)” value in series [17] was determined as 0. Further, in series [18], the “Hepatotoxicity (steatosis)” value amounted to 0.

Consider `CC(=O)Oc1ccccc1C(=O)O` [ASPIRIN], for which, in [1], the “Hepatotoxicity (severe hepatitis)” value is 6. Further, the figures for the “Hepatotoxicity (moderate)” value in series [2] and in series [4] were 30 and 66%, respectively. The “Hepatotoxicity (comment)” value in [3] is on record as “#S.REYE”. The “Hepatotoxicity (time to onset)” value in series [5] came to 1 week - 5 years. The “Hepatotoxicity (mechanism)” value in series [6] is recorded as “Dose-dependant, Reactive metabolite”. Moreover, in [7], the “Hepatotoxicity (chronic liver disease)” value worked out at 5. Further, the “Hepatotoxicity (association with vascular disease)” value in series [8] turned out to be 0. The “Hepatotoxicity (malignant tumour)” value in series [9] amounted to 0. Also, the “Hepatotoxicity (acute)” value in [10] was 0%; in [14], 31. The “Hepatotoxicity (animal toxicity known)” value in series [11] is on record as “yes”. Moreover, the “Hepatotoxicity (benign tumour)” value in series [12] turned out to be 0. In addition, the “Hepatotoxicity (choleostasis)” value in series [13] was determined as 2. In addition, the “Hepatotoxicity (cytolytic)” value in series [15] amounted to 26. In series [16], the “Hepatotoxicity (granulomatous hepatitis)” value worked out at 3. Further, the “Hepatotoxicity (cirrhosis)” value in series [17] came to 1. In addition, the “Hepatotoxicity (steatosis)” value in series [18] is recorded as 0.
